Laboratory results taken from patent US20120321637A1, “COMBINATION CANCER THERAPY WITH HERV INHIBITION” (The Board of Regents of the University of Texas System, priority 2011, published 2012).

Tests used:
melanoma = conditions: monotherapy; cited from earlier work
[1] = test system: BRAF mutant metastatic melanomas; conditions: phase I clinical trial; cited from earlier work
A101D cell line = conditions: human, 48 h, 1000 µM
Procedure: The A101D cell line was treated with various combinations of PD98059 (P), 219476 (C), and AZT (A) for 48hrs after which the MTS assay was done.
CellTiter 96 Aqueous One Solution Cell Proliferation Assay (MTS, Promega) was used to measure total vial cells following manufacturer's instructions. 5,000 melanoma cells were seeded in each well of 96-well plates, and were grown for 24 hrs in media with 10% Fetal Bovine Serum (FBS). After that period, media were aspirated and various combinations of treatments were added to each well in media without serum. Based on dose-response analyses, the final concentrations used were: PD90895 at 25 μM; 219476 at 1 μM; AZT at 1000 μM. The plates were incubated for a period of 24 hrs, 48hrs, and 72 hrs, respectively. Then, the MTS solution was added to each well according to the manufacturers protocol. The plates were again incubated for 2-4 hrs, after which absorbance was measured at 490 nm. Data were analyzed and compared for treatment efficiency.

## CNC(=O)c1cc(Oc2ccc(NC(=O)Nc3ccc(Cl)c(C(F)(F)F)c3)cc2)ccn1 [sorafenib, 4-[4-[[4-chloro-3-(trifluoromethyl)phenyl]carbamoylamino]phenoxy]-N-methyl-pyridine-2-carboxamide]
melanoma
  clinical benefit in melanoma patients: only shows marginal clinical benefit

## CCCS(=O)(=O)Nc1ccc(F)c(C(=O)c2c[nH]c3ncc(-c4ccc(Cl)cc4)cc23)c1F [PLX4032]
[1]
  BRAF mutant metastatic melanomas regressed in response to treatment: approximately 80%

## Cc1cn([C@H]2C[C@H](N=[N+]=[N-])[C@@H](CO)O2)c(=O)[nH]c1=O [AZT]
A101D cell line
  viability: 87.4%
